According to ChEMBL document CHEMBL1156829 (Proc Natl Acad Sci U S A, 2008):
pEC50: −log10 of the molar value.

Assays:
[1] = NOVARTIS: Cytotoxicity against human hepatocellular carcinoma cell line (Huh7); assay type: toxicity, cell-based, Huh-7; settings: Huh7 cells (hepatocellular carcinoma cell line)
[2] = test system: Plasmodium falciparum; assay: NOVARTIS: Inhibition of Plasmodium falciparum W2 (drug-resistant) proliferation in erythrocyte-based infection assay; assay type: functional, organism-based; settings: Plasmodium falciparum, W2; read-out: EC50
[3] = test system: Plasmodium falciparum; assay: NOVARTIS: Inhibition of Plasmodium falciparum 3D7 (drug-susceptible) proliferation in erythrocyte-based infection assay; assay type: functional, organism-based; settings: Plasmodium falciparum, 3D7

Compound	CC50 [1]	pEC50 [2]	pEC50 [3]
COc1ccc(C2C3=C(O)CC(C)(C)CC3=Nc3[nH]nc(C)c32)cc1 (configuration not stated)	> 100 µM	< 4.90	< 5.48
COC(=O)C1=C(C)N/C(=C\c2cc(C)n(-c3cc(C)ccc3OC)c2C)C1=O	> 10 µM	< 5.90	6.40
CN(C)c1ccc(/C=C2/SC(=Nc3ccc(O)cc3)NC2=O)cc1	> 100 µM	< 4.90	5.55
Nc1nc(N)c2cc(S(=O)(=O)N3CCCC3)ccc2n1	12.9 µM	< 5.90	7.23
Cc1[nH]n(-c2ccccc2)c(=O)c1C(=O)CN(C(=O)c1ccc2c(c1)OCO2)C(C)C	> 10 µM	< 5.90	< 6.33
O=C(CNC(=O)c1ccccc1)Oc1ccc(Cl)cc1	> 10 µM	< 5.90	6.27
CCSc1sc2sccc2[n+]1CC	> 8.58 µM	6.08	6.03
O=S1(=O)CCC(O)c2ccsc21 (configuration not stated)	> 100 µM	< 4.90	5.38
Cc1ccnc(Nc2nc(-c3ccc(Cl)cc3)cs2)c1	> 100 µM	< 4.90	5.35
O=C(Nc1cccnc1)c1cc(-c2cccnc2)nc2ccc(Cl)cc12	> 100 µM	< 4.90	5.40
COc1ccc(C2N=C(N)N=C(N)N2c2ccc(Cl)cc2)cc1OC (configuration not stated)	> 10 µM	< 5.90	6.49
Oc1ccc2cc(-c3nc4ccccc4[nH]3)c3nc4ccccc4n3c2c1	> 10 µM	6.01	< 5.98
CSc1nccc(-c2cc(F)cc3c2OC(CNC(=O)C2CC(=O)c4ccccc42)C3)n1 (configuration not stated)	> 10 µM	< 6.01	5.74
CCN1CCN(CC=Cc2ccccc2[N+](=O)[O-])CC1	> 100 µM	< 5.01	< 4.90
CS(=O)(=O)c1cnc2ncnn2c1C1CCCN(C(=O)c2ccccn2)C1 (configuration not stated)	> 10 µM	< 5.90	6.51
Cc1cc(-c2cn[nH]c2C2CCCN(C(=O)Cc3ccccc3F)C2)on1 (configuration not stated)	> 10 µM	< 6.01	< 5.90
CCOc1ccc(C(=O)Nc2cccc(-c3nc4cc(C)ccc4o3)c2C)cc1	> 10 µM	< 6.01	< 5.90
CCOC(=O)C1=C(C)N(c2ccc(OCC)cc2)C(=O)C1=Cc1ccc(C(C)C)cc1	> 100 µM	< 4.90	5.46
OC(CN1CCOCC1)Cn1cnc2c(SCc3ccccc3)ncnc21 (configuration not stated)	> 100 µM	< 5.01	< 4.90
CCCCCN(CC(=O)Nc1cc(C(C)(C)C)nn1-c1ccc(Cl)c(Cl)c1)C(=O)c1ccc2c(c1)OCO2	> 10 µM	6.02	5.99
O=C(O)c1cccc(N2N=C(c3ccccc3)CC2=O)c1	> 100 µM	< 5.02	< 4.90
Cn1nc(C(C)(C)C)cc1C(=O)N1CCCN1C(=O)CNC(=O)c1ccco1	> 10 µM	< 5.90	< 6.47
Oc1ccc(-c2cncc(NCc3ccc4c(c3)OCO4)c2)cc1	> 10 µM	6.02	5.93

Compound	CC50 [1]	pEC50 [2]	pEC50 [3]
Cc1ccc(C(=O)CSc2nc(N)c(C#N)c(-c3cccs3)c2C#N)cc1	> 100 µM	< 4.90	< 5.30
C[N+]1(CCOC(=O)CCC(=O)OCC[N+]2(C)CCCCCC2)CCCCCC1	> 10 µM	< 5.90	< 6.32
COc1ccc2c(c1)C(C)=CC(C)(C)N2C(=O)CSc1nnc(-c2ccc(C)cc2)o1	> 10 µM	< 5.90	6.33
COC(=O)c1c(-c2c(F)cccc2Cl)noc1/C=C/Nc1ccc(OC)cc1	> 10 µM	< 5.90	6.37
CCN1CCN(c2cc(C)c3cc(NC(=O)/C=C/c4cc(OC)ccc4OC)ccc3n2)CC1	> 10 µM	< 5.90	6.40
N#CC(C#N)C(/C(Sc1ccc([N+](=O)[O-])cc1)=C(/O)c1ccccc1)c1cccs1 (configuration not stated)	> 10 µM	< 5.90	< 6.39
COc1ccc(-c2ccc(C=NNC(=O)CNC(=O)c3ccc4c(c3)OCO4)o2)cc1Cl	> 10 µM	< 5.90	< 6.43
COc1cc(NC(C)CCCN(Cc2ccc(Cl)cc2)C(=O)c2ccc(Cl)cc2Cl)c2ncccc2c1 (configuration not stated)	4.87 µM	6.33	6.42
CCCNC(=O)Cn1nc(C)n2c(cc3sccc32)c1=O	> 10 µM	< 6.01	< 5.90
Cc1cn2c3ccccc3n(CCN3CCOCC3)c2n1	> 100 µM	< 4.90	< 5.61
O=C(NCCc1ccccc1)c1cnc(NCCCN2CCCC2)nc1Nc1ccccc1	> 10 µM	< 5.90	6.27
O=C(CCNS(=O)(=O)c1ccc(Br)s1)N1CCc2ccccc2C1	> 100 µM	< 4.90	< 5.25
CCc1c(C#N)c(N)nc2sc(C(=O)c3ccc(Br)cc3)c(N)c12	> 100 µM	< 4.90	5.26
CCCC(C(=O)NCCC(C)C)N(C(=O)c1snc(C(N)=O)c1N)c1ccc(C(C)C)cc1 (configuration not stated)	> 100 µM	< 4.90	5.26
CCCc1cc2c(=O)c(-c3ccc4c(c3)OCO4)c(CC)oc2cc1OC(C)C	> 100 µM	< 4.90	5.23
CCOc1ccc2nc(Sc3nc(Nc4cccc(C)c4)nc(Nc4cccc(C)c4)n3)sc2c1	> 100 µM	< 4.90	5.24
CN(Cc1ccccc1)C(=O)CSc1nc(NCc2ccccc2)c2ccccc2n1	> 100 µM	< 4.90	< 5.52
O=C1Nc2ccccc2Sc2ccccc21	> 100 µM	< 4.90	< 5.52
CCOc1ccc2c(C)nc(NC(N)=NC(C)=O)nc2c1	> 100 µM	< 4.90	5.52
CC1CN(C(=O)C(Cc2c[nH]c3ccccc23)NC(=O)CCl)CCN1C(=O)Nc1ccccc1 (configuration not stated)	> 10 µM	< 5.90	6.54
CCOC(=O)c1c(C)[nH]c(C)c1S(=O)(=O)N1CCCC(C(=O)N2CCN(c3cccc(C)c3C)CC2)C1 (configuration not stated)	> 100 µM	< 4.90	5.28
COC(=O)c1cc(NC(=S)NC(=O)c2c(OC)cccc2OC)cc(C(=O)OC)c1	> 100 µM	< 4.90	5.29
Cc1ccc(N2C(=O)C3C(C2=O)C2(c4ccccc4)C(=O)C3(c3ccccc3)C(c3ccccc3)=C2c2ccccc2)c([N+](=O)[O-])c1 (configuration not stated)	> 100 µM	< 4.90	5.58

Compound	CC50 [1]	pEC50 [2]	pEC50 [3]
CCNC1=C(C(=O)c2ccccc2)N(CC(=O)c2ccc(Br)cc2)S(=O)(=O)c2ccccc21	> 10 µM	6.02	< 5.90
COc1cc(C(=O)Nc2nnc(-c3ccccc3)o2)cc(OC)c1OC	> 100 µM	< 4.90	5.29
Cc1ccccc1CSc1ccc(-c2cccs2)nn1	> 10 µM	6.02	< 5.98
COC(=O)c1ccc(N2C(=O)C3C(C2=O)C2(c4ccccc4)C(=O)C3(c3ccccc3)C(c3ccc(OC)cc3)=C2c2ccc(OC)cc2)cc1 (configuration not stated)	> 100 µM	< 4.90	5.32
CC1CCCC(NC(=O)C2N(CCN3CCCCC3C)C(=O)C3C(C(=O)Nc4cccc(Cl)c4)C4C=CC32O4)C1C (configuration not stated)	47.7 µM	5.34	< 4.98
COc1ccc(CC(=O)Nc2ccc(S(=O)(=O)N3CCCCCC3)cc2)cc1	> 100 µM	5.01	< 4.90
O=C1NN=C2C1=NC1(CCCCC1)Cc1ccccc12	3.9 µM	6.42	6.49
CC1=NNC(=O)C1C(c1ccc(Cl)cc1Cl)C1C(=O)NN=C1C (configuration not stated)	> 10 µM	< 5.90	< 6.32
CCCN1CCC(c2nc(N3CCOCC3)ncc2-c2cc(C)no2)CC1	> 10 µM	< 5.90	< 6.36
CN(C)CCNC(=O)c1c[nH]c2ccc(S(=O)(=O)N3CCc4ccccc43)cc2c1=O	> 10 µM	< 5.90	6.38
COC(=O)c1cn2c(=O)c3ccccc3nc2c2ccccc12	> 10 µM	< 5.90	< 6.41
CCOC(=O)c1ccc(N(C(=O)CSCC(=O)Nc2cc(C)on2)C(C(=O)NC2CCCCC2)c2ccc(O)c(O)c2)cc1 (configuration not stated)	> 10 µM	< 5.90	< 6.50
CCCCN(CCCC)S(=O)(=O)c1nc(C)c(Cl)c(C)c1C#N	> 100 µM	< 4.90	5.51
O=C1c2cccc(N3CCN(Cc4cccn4-c4nccs4)CC3)c2C(=O)N1Cc1ccc(Cl)cc1	> 100 µM	< 4.90	5.26
O=C(CCCOc1ccc(Cl)cc1Cl)NCCCn1ccnc1	> 10 µM	< 5.90	6.32
COc1ccc(OC)c(NC2=C(Cl)C(=O)N(c3ccc(C)c(Cl)c3)C2=O)c1	> 100 µM	< 4.90	5.29
COc1ccc(C(=O)n2nc(N)c3cc4ccc(C)cc4nc32)cc1[N+](=O)[O-]	> 100 µM	< 4.90	< 5.27
Cc1cc([N+](=O)[O-])ccc1-c1ccc(C(=O)Nc2ccc(-c3nc4ccccc4[nH]3)cc2)o1	> 100 µM	< 4.90	5.55
CCOc1ccc2nc(C)c(CN(C)Cc3ccccc3)c(O)c2c1	> 10 µM	6.01	< 5.90
O=C(c1cnsn1)N1CCCC(COc2cccc(CN3CCC(Cc4ccccc4)CC3)c2)C1 (configuration not stated)	> 100 µM	< 4.90	< 5.44
NC(=O)c1ccc(-n2nnnc2SCc2ccc(Cl)cc2)cc1	> 100 µM	< 4.90	5.55
Cn1c(=O)c(Cl)c2c3c(c(Cl)ccc31)C(=O)c1ccccc1-2	> 10 µM	< 5.90	< 6.53
Nc1nc(N)c2c(OCc3ccc(C(F)(F)F)cc3)cccc2n1	> 10 µM	6.01	6.11
